From patent publication US20190127456A1, “METHODS OF TREATING IDIOPATHIC PULMONARY FIBROSIS” (FibroGen, Inc., priority 2017, published 2019)

Tests used:
[1] = tested on: radiation-induced lung fibrosis; assay: Mouse radiation-induced lung fibrosis model: lung function by blood gas analysis; assay type: in vivo; conditions: blood gas analysis at 24 weeks, compared to RT with no treatment; data not shown
Experimental: The objective of this study was to compare the activity of pamrevlumab monotherapy to either pirfenidone or nintedanib alone, and to evaluate the potential for enhanced activity of the combined agents. […] In this study, mice received thoracic irradiation (RT), followed by the therapeutic administration of the agents at 16 weeks post-irradiation when lung remodeling was evident by HRCT. After 8 weeks of drug treatment, lung density and volume were assessed by HRCT, lung function was assessed by blood gas analysis, and mice were sacrificed for histologic and gene expression analysis. C57B1/6 mice were irradiated with 14.5 Gy photons; full thorax, single dose. Treatment with therapeutic agent(s) (pamrevlumab, pirfenidone, and/or nintedanib) was initiated 16 weeks post-irradiation and continued for 8 weeks. Pamrevlumab (FG) was given IP, BIW, at 40 mg/kg; pirfenidone (PF) was given PO in chow, QD, at 300 mg/kg; nintedanib (ND) was given PO in chow, QD, at 100 mg/kg. Treatment with each agent alone, with combinations of two, and with a triple combination were carried out. Controls included non-irradiated mice, mice that were irradiated and not treated, and mice that were irradiated and given human IgG. […] The effect of the treatments on lung function was assessed by blood gas analysis (data not shown).

[2] = tested on: IPF; assay: Phase two study in IPF patients: UCSD Shortness of Breath Questionnaire (UCSD-SOBQ); assay type: in vivo, human; conditions: for mean UCSD-SOBQ score: IPF patients, n=22, FIG. 6 change from baseline
Excerpt: A sub-set of patients in the Phase two clinical trial described above in Example 2 (pamrevlumab n=22, placebo n=20), self-administered the University of California, San Diego—Shortness of Breath Questionnaire (UCSD-SOBQ) at the start of therapy (baseline) and then every 12 weeks while enrolled in the 48 week study. The UCSD-SOBQ has been validated as an acceptable measure to assess change in dyspnea over time in IPF (Swigris et al., Respir Med. 2012 October; 106(10): 1447-1455).
The questionnaire has 24 sections that assess dyspnea associated with activities of daily living (ADLs) in different lung disorders, including IPF. Twenty-one sections relate to the severity of dyspnea experienced during different daily activities, while three sections assess the limitations due to shortness of breath, fear of harm from overexertion and fear of shortness of breath. Each question has a 6-point scale (0=“not at all” to 5=“maximal or unable to do because of breathlessness”. The total score ranges from 0 to 120, with higher scores indicating greater dyspnea.
An ANCOVA model with treatment as fixed effect and baseline UCSD-SOBQ score as covariate was applied to observed and imputed data at each visit. Missing results at post-baseline visits were mputed using the predicted values from a random coefficient model. The analysis included all subjects who had baseline and at least one post-baseline UCSD-SOBQ evaluation.

Question: Which results are given for pamrevlumab?
Answer: O2 saturation [1]: normalized O2 saturation; mean UCSD-SOBQ score ([2]; Week 12): 1.98; mean UCSD-SOBQ score ([2]; Week 36): 3.76; mean UCSD-SOBQ score ([2]; Week 48): 2.26; difference in mean UCSD-SOBQ score between the two arms ([2]; pamrevlumab vs placebo, Week 48, p-value=0.0460): −13.32 points
